This is an account of results in publication PMC3422668 (Journal of immunology (Baltimore, Md. : 1950), 2012).

“Also recorded” adds a separate entry of the source.

One test has as its system mAb 64-3-7 Fab. The test can be described thus: SPR direct binding of soluble 64-3-7 Fab to peptide coupled to a CM5 chip. Further details: species or system murine. As to conditions: similarly coupled peptide surface, data not shown.
The next test deals with mAb 64-3-7. The format is binding, murine. As to conditions: SPR, BIAcore T100; graded peptide concentrations 11, 33 and 100 μM; Figure 1B.
The target of test [1] is T1, H-2L^d octamer peptide EPQAPWME, residues 46-53 (mouse).
T1 chain: EPQAPWME
The test can be described thus: crystal structure.

Test [2] addresses T2, H-2L^d heptamer peptide EPQAPWM (residues 46 to 52) (Mus musculus, H-2Ld).
T2 chain: EPQAPWM
The test can be described thus: SPR.

Test [3] addresses T3, H-2L^d 6-mer peptide EPQAPW (Mus musculus, H-2Ld).
T3 chain: EPQAPW
The test can be described thus: SPR.

For RFDSDAENPRYEPRARWMEQE [pK^b35-55], in the test on mAb 64-3-7 Fab, the “direct binding of 64-3-7 Fab to peptide-coupled biosensor surface” value is “no detectable binding”.

Consider PQAPWM, for which the “competition for antibody binding to pL^d35-55-coupled surface” value (“competition for antibody binding” below) in the test on mAb 64-3-7 was “intermediate activity; also recorded: only binds weakly”.

Take “SNVREIKNRWRSTVQKLK [control peptide, reference compound]”: the “direct binding of 64-3-7 Fab to peptide-coupled biosensor surface” value in the test on mAb 64-3-7 Fab was “no detectable binding”.

Take EPQAPWM: the “competition for antibody binding” value in the test with mAb 64-3-7 was “compete effectively”.

Consider EPQAPW, for which the “competition for antibody binding” value with mAb 64-3-7 is recorded as “intermediate activity”.

For the molecule QAPWM, in the test with mAb 64-3-7, the “competition for antibody binding” value was “fails to block”.

B1: Fab fragment of mAb 64-3-7 (Fab, V domains shown)
VH: EVKLVESEGGLVQPGSSMKLSCTASGFTFSDYYMAWVRQVPEKGLEWVANINYDGSSTYYLDSLKGRFIISRDIAKNILYLQMSSLRCEDTATYYCARLTNGYLDVWGAGTTVTVSS
VL: DVVMTQTPLSLPVSLGDQASISCRSSQSLVHSNGNTYLHWYLQKPGQSPNLLIYKVSNRFSGVPDRFSGSGSGTDFTLKISRVEAEDLGVYFCSQSTHVPTFGGGTKLEIK
As for B1, the binding result in test [1] is recorded as “binds”.

B2: mAb 64-3-7 (antibody, V domains shown)
VH: EVKLVESEGGLVQPGSSMKLSCTASGFTFSDYYMAWVRQVPEKGLEWVANINYDGSSTYYLDSLKGRFIISRDIAKNILYLQMSSLRCEDTATYYCARLTNGYLDVWGAGTTVTVSS
VL: DVVMTQTPLSLPVSLGDQASISCRSSQSLVHSNGNTYLHWYLQKPGQSPNLLIYKVSNRFSGVPDRFSGSGSGTDFTLKISRVEAEDLGVYFCSQSTHVPTFGGGTKLEIK
Take B2: the binding result in test [2] and in test [3] was “binds” each time.
